Earlier results, collected in patent US20190314394A1, “IMMUNE-POTENTIATING DRUG NANOCARRIERS AND METHODS OF PRODUCTION AND USE THEREOF” (priority 2013, published 2019).

Test system: HLA-DR molecules
Settings: 15 out of 16 of the most prevalent HLA-DR molecules; read-out: IC50 (high or intermediate affinity binding)

aKXVAAWTLKAAa (SEQ ID NO: 5) (AKAVAAWTLKAAA; D-alanine termini, cyclohexylalanine; MOD_RES (1)..(1) D-Alanine; MOD_RES (3)..(3) Cyclohexylalanine; MOD_RES (13)..(13) D-Alanine) [PADRE peptide variant; a=D-alanine, X=cyclohexylalanine]
IC50: < 1 µM
